ChEMBL document CHEMBL5604063, “ASAP - DENV-2 NS2B-NS3 protease fluorescence dose response” (2024)
Where “and” joins values, the source holds several entries; their conditions need not be identical. Identical values can stand only once.

molecular target: Genome polyprotein (dengue virus type 2, UniProt P29990); format: functional, Thailand/16681/1984
Sequence (P29990 1346-1475 limits assumed): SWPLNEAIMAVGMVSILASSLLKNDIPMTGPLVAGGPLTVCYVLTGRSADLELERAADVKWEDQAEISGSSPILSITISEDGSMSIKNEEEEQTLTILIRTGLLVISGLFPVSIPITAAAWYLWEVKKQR
Sequence (P29990 1476-2093 limits assumed): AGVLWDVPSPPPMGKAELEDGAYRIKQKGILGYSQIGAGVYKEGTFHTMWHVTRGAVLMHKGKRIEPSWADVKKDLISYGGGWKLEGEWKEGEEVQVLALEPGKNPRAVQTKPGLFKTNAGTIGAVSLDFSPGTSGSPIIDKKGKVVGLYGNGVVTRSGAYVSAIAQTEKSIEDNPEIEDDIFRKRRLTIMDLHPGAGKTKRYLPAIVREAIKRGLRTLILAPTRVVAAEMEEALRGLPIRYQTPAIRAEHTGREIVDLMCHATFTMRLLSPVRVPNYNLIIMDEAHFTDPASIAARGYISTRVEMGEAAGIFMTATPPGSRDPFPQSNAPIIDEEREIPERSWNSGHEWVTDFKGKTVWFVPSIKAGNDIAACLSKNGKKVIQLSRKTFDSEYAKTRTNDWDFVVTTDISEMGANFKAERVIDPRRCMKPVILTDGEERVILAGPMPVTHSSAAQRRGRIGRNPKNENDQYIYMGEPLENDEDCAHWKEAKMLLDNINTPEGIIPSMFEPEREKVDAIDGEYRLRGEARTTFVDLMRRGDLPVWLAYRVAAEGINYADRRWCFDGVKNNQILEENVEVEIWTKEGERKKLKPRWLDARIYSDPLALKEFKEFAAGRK

Row | SMILES | IC50
1 | c1ccc2nc(SCc3cn4ccccc4n3)cnc2c1 | > 99.5 µM
2 | c1ccc(C2CCN(Cc3ccc4nccnc4c3)CC2)nc1 | > 99.5 µM
3 | c1cc2sccc2c(N2CCN(Cc3ccc4cn[nH]c4c3)CC2)n1 | > 99.5 µM
4 | Brc1cnn(C2CCN(Cc3csnn3)CC2)c1 | > 99.5 µM
5 | [O-][S@@+](Cc1nc(-c2cccs2)no1)c1cccs1 | > 99.5 µM
6 | C[S@@+]([O-])c1nncn1Cc1ccc(Cl)s1 | > 99.5 µM
7 | c1nnc(SCCCSc2nncs2)s1 | > 99.5 µM
8 | O=c1ccn(Cc2cc(=O)n3ccccc3n2)c2ccsc12 | > 99.5 µM
9 | Brc1nc(Br)n(Cc2cscn2)n1 | > 99.5 µM
10 | c1ccc(COc2cccc3[nH]cc(CN4CCC(c5cscn5)CC4)c23)cc1 | > 99.5 µM
11 | NCc1cccc(NC(=O)[C@@H](NC(=O)OCc2ccccc2)c2cccc(OC[C@H]3CCCO3)c2)c1 | > 99.5 µM
12 | c1ccc2c(CNCc3ccc(-c4cscn4)cc3)c[nH]c2c1 | > 99.5 µM
13 | Cn1cc(N2CCN(Cc3c[nH]c4ccccc34)CC2)cn1 | > 99.5 µM
14 | O=C(c1cccnc1)N1CCN(Cc2c[nH]c3ccccc23)CC1 | > 99.5 µM
15 | COc1ccc(F)cc1-c1ccc(S(=O)(=O)Nc2ccc(Cl)cc2C(N)=O)cc1 | 28.4 µM
16 | O=c1[nH]c2cccc(N3CCN(Cc4c[nH]c5ccccc45)CC3)c2[nH]1 | > 99.5 µM
17 | CC(=O)N[C@H](C(=O)N[C@H]1C(=O)O[C@H]1C)c1ccc(OCc2ccccc2)cc1 | > 99.5 µM
18 | N#Cc1ccc(OCCn2nnn(-c3ccccc3)c2=O)cc1 | > 99.5 µM
19 | O=C(Nc1cc(Cl)cc(C(=O)Nc2ncc3n2CCNC3)c1)OCc1ccccc1 | > 99.5 µM
20 | NCc1cccc(NC(=O)[C@@H]2[C@@H]3CCCCC[C@@H]3[C@@H]2NC(=O)OCc2ccccc2)c1 | 22.2 µM
21 | N#Cc1ccc(S(=O)(=O)CCn2nc(-c3ccco3)oc2=O)cc1 | > 99.5 µM
22 | NC(=O)c1cnccc1N1CCN(Cc2c[nH]c3ccccc23)CC1 | > 99.5 µM

Row | SMILES | IC50
23 | c1ccc(OC2CCN(Cc3c[nH]c4ccccc34)CC2)cc1 | > 99.5 µM
24 | NCc1cccc(NC(=O)[C@@H](NC(=O)OCc2ccccc2)c2cccc(OCC3CCC3)c2)c1 | 44 µM
25 | CN(C)Cc1nnc(NC(=O)[C@@H](NC(=O)OCc2ccccc2)c2ccc(OCc3ccccc3)cc2)s1 | > 99.5 µM
26 | NCc1cccc(S(=O)(=O)Nc2cc(Cl)cc(NC(=O)OCc3ccccc3)c2)c1 | > 99.5 µM
27 | NCc1ccccc1Oc1ccc(S(=O)(=O)Nc2ccc(Cl)cc2C(=O)O)cc1 | > 99.5 µM
28 | C[C@H]1CC[C@@](Cc2nc3ccccc3[nH]2)(C(=O)Nc2cccc(CN)c2)CC1 | > 99.5 µM
29 | CN(C)Cc1csc(NC(=O)[C@@H](NC(=O)OCc2ccccc2)c2ccc(OCc3ccccc3)cc2)n1 | > 99.5 µM
30 | Cc1nc(COc2ccc([C@@H](NC(=O)OCc3ccccc3)C(=O)Nc3cccc(CN)c3)cc2)cs1 | > 99.5 µM
31 | c1ccc2c(CN3CCN(c4ccncc4)CC3)c[nH]c2c1 | > 99.5 µM
32 | O=C(Nc1cc(Cl)cc(C(=O)Nc2nc3c(s2)CCNC3)c1)OCc1ccccc1 | > 99.5 µM
33 | COc1c(C)cc(C(=O)Nc2cccc(CN)c2)cc1NC(=O)OCc1ccccc1 | > 99.5 µM
34 | NCc1cccc(NC(=O)Cc2cc(Cl)cc(NC(=O)OCc3ccccc3)c2)c1 | 85.8 µM
35 | COc1ccc(CN(C)C)cc1NC(=O)[C@@H](NC(=O)OCc1ccccc1)c1ccc(OCc2ccccc2)cc1 | > 99.5 µM
36 | Nc1ccc2ccc(B(O)O)cc2c1 | > 99.5 µM
37 | CC(C)(C)OC(=O)Nc1cccc2[nH]cc(CN3CCC(c4cscn4)CC3)c12 | > 99.5 µM
38 | Cc1c(NC(=O)OCc2ccccc2)cc(C(F)(F)F)cc1C(=O)Nc1cccc(CN)c1 | 51.4 µM
39 | COc1ccc(F)cc1-c1ccc(S(=O)(=O)Nc2cc(Cl)cc(C(=O)O)c2)cc1 | 89.9 µM
40 | c1ccc(COc2ccc3[nH]cc(CN4CCC(c5cscn5)CC4)c3c2)cc1 | > 99.5 µM
41 | NC(=O)c1cc(Cl)ccc1NS(=O)(=O)c1ccc(-c2ccc(F)cc2)cc1 | 33.3 µM
42 | NCc1cccc(NC(=O)[C@@H](NC(=O)OCc2ccccc2)c2ccc(OC[C@H]3CCCCO3)cc2)c1 | > 99.5 µM
43 | O=C(Nc1cc(Cl)cc(C(=O)Nc2n[nH]c3c2CNC3)c1)OCc1ccccc1 | 27.2 µM
44 | Cc1c[nH]nc1CN1CCC(c2cscn2)CC1 | > 99.5 µM

Row | SMILES | IC50
45 | O=C(Nc1cc(Cl)cc(C(=O)Nc2ncc([C@H]3CCCN3)s2)c1)OCc1ccccc1 | > 99.5 µM
46 | CC(C)(C)c1ccc2[nH]cc(CN3CCC(c4cscn4)CC3)c2c1 | > 99.5 µM
47 | Brc1cccc2cn(Cc3ncccn3)nc12 | > 99.5 µM
48 | c1ccc2[nH]c(CC3CCN(Cc4nccs4)CC3)nc2c1 | > 99.5 µM
49 | Cn1c(Sc2nc3ccccc3o2)nc2sccc2c1=O | > 99.5 µM
50 | O=C(Nc1cc(Cl)cc(C(=O)Nc2n[nH]c3c2CNC32CC2)c1)OCc1ccccc1 | 67.8 µM
51 | O=C(Nc1cc(Cl)cc(C(=O)Nc2cccc(CO)c2)c1)OCc1ccccc1 | > 99.5 µM
52 | CN1CCC[C@H]1COc1cccc([C@@H](NC(=O)OCc2ccccc2)C(=O)Nc2cccc(CN)c2)c1 | > 99.5 µM
53 | Cc1ccc(CN)cc1-c1cccc([C@H](NC(=O)OCc2ccccc2)C(=O)Nc2cccc(CN)c2)c1 | 63.1 µM
54 | O=C(NCc1ccco1)c1csc(Br)c1 | > 99.5 µM
55 | CCc1cccc2c(CN3CCC(c4cscn4)CC3)c[nH]c12 | > 99.5 µM
56 | Cc1cc(NC(=O)OCc2ccccc2)cc(C(=O)Nc2cccc(CN)c2)c1C | > 99.5 µM
57 | COc1cc(Br)ccc1[C@@H](NC(=O)OCc1ccccc1)C(=O)Nc1cccc(CN)c1 | 83.9 µM
58 | CN(C)Cc1ccc(N2CCN(Cc3c[nH]c4ccccc34)CC2)nc1 | > 99.5 µM
59 | O=C(NCc1nccs1)c1sccc1Cl | > 99.5 µM
60 | CC(C)(C)c1cc(CN2CCC(c3cscn3)CC2)n[nH]1 | > 99.5 µM
61 | CN(C)Cc1cc(NC(=O)[C@@H](NC(=O)OCc2ccccc2)c2ccc(OCc3ccccc3)cc2)ccc1Cl | > 99.5 µM
62 | CCNC(=O)Nc1cc(Cl)cc(C(=O)Nc2cccc(CN)c2)c1 | > 99.5 µM
63 | Cc1ccc(NC(=O)OC(C)(C)C)c2[nH]cc(CN3CCC(c4cscn4)CC3)c12 | > 99.5 µM
64 | O=C(Nc1cc(Cl)cc(C(=O)Nc2cnc3n2CCNC3)c1)OCc1ccccc1 | > 99.5 µM
65 | NCc1cccc(NC(=O)[C@@H]2CCC[C@@H](NC(=O)OCc3ccccc3)C2)c1 | > 99.5 µM
66 | c1ccc(CC2CCN(Cc3c[nH]c4ccccc34)CC2)cc1 | > 99.5 µM

Row | SMILES | IC50
67 | O=C1CN(Cc2c[nH]c3ccccc23)CCN1c1cccnc1 | > 99.5 µM
68 | O=C(N[C@@H](C(=O)Nc1n[nH]c2c1CNC21CC1)c1ccc(OCc2ccccc2)cc1)OCc1ccccc1 | > 99.5 µM
69 | COc1cc2c(CN3CCC(c4cscn4)CC3)c[nH]c2cc1Cl | > 99.5 µM
70 | O=c1ccc(-n2cncn2)nn1CC=Cc1ccccc1 | > 99.5 µM
71 | CCSc1nnc(SCCn2nc3ccccn3c2=O)s1 | > 99.5 µM
72 | Cn1nc(NC(=O)[C@@H](NC(=O)OCc2ccccc2)c2ccc(OCc3ccccc3)cc2)c2c1CNC2 | > 99.5 µM
73 | c1cncc(N2CCCN(Cc3c[nH]c4ccccc34)CC2)c1 | > 99.5 µM
74 | O=C(Nc1cc(Cl)cc(C(=O)Nc2cc3n(n2)CCNC3)c1)OCc1ccccc1 | > 99.5 µM
75 | Clc1cc(Cl)c2c(CN3CCC(c4cscn4)CC3)c[nH]c2c1 | > 99.5 µM
76 | O=c1c2cccn2cnn1Cc1cnc(Cl)s1 | > 99.5 µM
77 | O=c1c2ccccc2ncn1CCCn1cnc2ccccc2c1=O | > 99.5 µM
78 | NCc1cccc(NC(=O)c2cc(Cl)cc(CNC(=O)OCc3ccccc3)c2)c1 | 84.3 µM
79 | NCc1cccc(C(=O)Nc2cc(Cl)cc(NC(=O)OCc3ccccc3)c2)c1 | 67.5 µM
80 | c1ccc2c(CN3CC(c4cscn4)C3)c[nH]c2c1 | > 99.5 µM
81 | NCc1cccc(NC(=O)c2ccc(OCC(F)(F)F)c(NC(=O)OCc3ccccc3)c2)c1 | > 99.5 µM
82 | c1cc(-c2cc(CN3CCC(c4cscn4)CC3)n[nH]2)ccn1 | > 99.5 µM
83 | NCc1cccc(NC(=O)[C@@H](NC(=O)OCc2ccccc2)c2ccc(Br)c(Cl)c2)c1 | 9.1 µM and 8.4 µM
84 | O=C(N[C@@H](C(=O)Nc1nc2c(s1)CNC2)c1ccc(OCc2ccccc2)cc1)OCc1ccccc1 | > 99.5 µM
85 | C1=C(c2cccnc2)CN(Cc2c[nH]c3ccccc23)CC1 | > 99.5 µM
86 | O=C(O)c1cc(Cl)cc(NS(=O)(=O)c2ccc(-c3ccc(F)cc3)cc2)c1 | 90.6 µM
87 | FC1(c2cccnc2)CN(Cc2c[nH]c3ccccc23)C1 | > 99.5 µM
88 | O=C(Nc1cc(Cl)cc(C(=O)Nc2nc3c(s2)CNC3)c1)OCc1ccccc1 | > 99.5 µM

Row | SMILES | IC50
89 | CN1CCn2nc(NC(=O)[C@@H](NC(=O)OCc3ccccc3)c3ccc(OCc4ccccc4)cc3)cc2C1 | > 99.5 µM
90 | c1cncc([C@@H]2CN(Cc3c[nH]c4ccccc34)CCO2)c1 | > 99.5 µM
91 | Cc1c(C(F)(F)F)n[nH]c1CN1CCC(c2cscn2)CC1 | > 99.5 µM
92 | c1csc(CSc2nnc(Cn3cncn3)o2)c1 | > 99.5 µM
93 | O=C1O[C@H]2CCN(Cc3ccc(OCc4ccccc4)cc3)C[C@H]12 | > 99.5 µM
94 | Cc1[nH]c2ccccc2c1CN1CCC(c2c[nH]c3ncccc23)CC1 | > 99.5 µM
95 | c1cnc2[nH]cc(C3CCN(Cc4c[nH]c5cnccc45)CC3)c2c1 | > 99.5 µM
96 | O=C(N[C@@H](C(=O)Nc1ncc([C@H]2CCCN2)s1)c1ccc(OCc2ccccc2)cc1)OCc1ccccc1 | > 99.5 µM
97 | NCc1cccc(S(=O)(=O)Cc2cc(Cl)cc(NC(=O)OCc3ccccc3)c2)c1 | > 99.5 µM
98 | NCc1cccc(NC(=O)c2cc(N)cc(NC(=O)OCc3ccccc3)c2)c1 | > 99.5 µM
99 | CN1CCc2nc(NC(=O)[C@@H](NC(=O)OCc3ccccc3)c3ccc(OCc4ccccc4)cc3)sc2C1 | > 99.5 µM
100 | CN(Cc1cccnc1)Cc1c[nH]c2ccccc12 | > 99.5 µM
101 | CCN1CC[C@@H](COc2ccc([C@@H](NC(=O)OCc3ccccc3)C(=O)Nc3cccc(CN)c3)cc2)C1 | > 99.5 µM
102 | c1csc(-c2nnc(Sc3ncnc4sccc34)o2)c1 | > 99.5 µM
103 | Cn1nc(NC(=O)c2cc(Cl)cc(NC(=O)OCc3ccccc3)c2)c2c1CNC2 | 89.1 µM
104 | c1ccc([C@H](NCc2c[nH]c3ccccc23)c2cccnc2)cc1 | > 99.5 µM
105 | CC[C@@H](NCc1c[nH]c2ccccc12)c1cccnc1 | > 99.5 µM
106 | NC[C@@H]1CN(c2cc(N3CC[C@H](N)C3)cc3c2COB3O)C(=O)O1 | > 99.5 µM
107 | O=C(O)c1cc(Cl)ccc1NS(=O)(=O)c1ccc(Nc2ccccc2F)nc1 | 43.2 µM
108 | NCc1cccc(NC(=O)C[C@@H](NC(=O)OCc2ccccc2)c2ccc(Cl)c(Br)c2)c1 | 12.4 µM and 12.2 µM
109 | c1ccc([C@@H]2C[C@H]3C[C@@H]2C[C@H]3NCc2n[nH]c3ccccc23)cc1 | > 99.5 µM
